Test results: patent US11673889B2, “Substituted imidazo[4,5-c][1,8]naphthyridines as phosphodiesterase inhibitors” (Nanjing Zhengxiang Pharmaceuticals Co., Ltd., priority 2019, dated 2023)

What was measured:
[1] = target: T1, human soluble ENPP1 (Homo sapiens, UniProt P22413); experiment: ENPP1 activity assay using p-Nitrophenyl-5′-AMP as a substrate; type: biochemical
T1 construct: 20 ng of human soluble ENPP1
T1 sequence (P22413 103-925 limits assumed): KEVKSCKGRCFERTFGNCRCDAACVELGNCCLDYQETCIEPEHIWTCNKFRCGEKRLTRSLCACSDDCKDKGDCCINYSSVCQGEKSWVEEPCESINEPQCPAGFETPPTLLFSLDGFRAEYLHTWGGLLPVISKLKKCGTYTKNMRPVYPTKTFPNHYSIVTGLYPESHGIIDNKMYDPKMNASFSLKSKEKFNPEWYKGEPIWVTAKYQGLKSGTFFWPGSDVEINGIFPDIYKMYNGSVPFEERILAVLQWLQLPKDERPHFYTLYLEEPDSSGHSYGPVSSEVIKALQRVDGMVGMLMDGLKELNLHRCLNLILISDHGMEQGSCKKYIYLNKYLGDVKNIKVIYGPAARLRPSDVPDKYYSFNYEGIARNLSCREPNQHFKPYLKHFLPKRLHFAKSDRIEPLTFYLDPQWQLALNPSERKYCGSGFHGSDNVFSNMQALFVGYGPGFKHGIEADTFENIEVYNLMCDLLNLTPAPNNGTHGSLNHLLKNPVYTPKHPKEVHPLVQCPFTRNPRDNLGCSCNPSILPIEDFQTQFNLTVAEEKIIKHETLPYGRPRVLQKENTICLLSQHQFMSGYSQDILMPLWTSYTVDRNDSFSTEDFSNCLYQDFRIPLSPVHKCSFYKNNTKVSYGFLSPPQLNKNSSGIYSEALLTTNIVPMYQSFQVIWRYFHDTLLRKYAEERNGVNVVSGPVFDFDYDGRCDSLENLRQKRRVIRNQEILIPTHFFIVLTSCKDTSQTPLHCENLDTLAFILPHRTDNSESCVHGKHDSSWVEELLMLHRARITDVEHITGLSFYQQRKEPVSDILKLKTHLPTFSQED
Outline: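 Absorbance at 405 nm tracks p-nitrophenol from AMP-pNP hydrolysis after 1 h at room temperature, substrate added as 3 mM (2× final) following 30 min enzyme–compound preincubation. Enzyme: 35 ng human soluble ENPP1. IC50 fitted (variable-slope four-parameter) from percent inhibition normalized to max and blank.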

[2] = target: T1, human soluble ENPP1; experiment: ENPP1 activity assay using p-Nitrophenyl-5′-TMP as a substrate; type: biochemical
Outline: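 Percent inhibition, set against uninhibited-enzyme and blank wells, was fitted to a four-parameter variable-slope model for IC50. Chromogenic read-out was p-nitrophenol released from TMP-pNP, added as a 2 mM […] solution for 1 h at RT. Before that, 20 ng soluble ENPP1 sat 30 min with compound.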

[3] = test system: cGAMP activated THP-1 cells; experiment: ENPP1 inhibitors screening on cGAMP activated THP-1 cells (IFN-β ELISA); type: cell-based; details: THP-1 cells with 2′3′-cGAMP, 24 hours, FIGS. 1A-1E
Experimental: THP-1 cells from bulk cultures were counted and suspended in RPMI 1640, 20% FBS, 2.5 mM L-alanyl-L-glutamine at a concentration of 5.5×10^6 cells/mL. The THP-1 cells were subsequently seeded into 96 well round bottom plates 180 μL/well (1×10^6 cells per well), incubated for 1 hour at 37° C., 5% CO2.
Test compounds were screened in triplicate on THP-1 cells at a final concentration of 10 μM. A working solutions at 0.2 mM. Each well contains 180 μL of THP-1 cell suspension, 10 μL (30 μM, 40 μM or 50 μM) 2′3′-cGAMP (InvivoGen, catalog #tlrl-nacga23) solution (600 μM, 800 μM or 1000 μM) and 10 μL test compound working solution. Incubate for 1 hour.
Vehicle control wells contain 2′3′-cGAMP at concentrations of […] and 50 μM without any test compound. Positive control, 2′3′-cGAMP or 2′,3′-cGAM(PS)2 (Rp/Sp) (InvivoGen, cat #tlrl-nacga2srs) at 40 μM and 80 μM (final concentration).
The final assay volume were 200 μL/well contains: 1) THP-1 cells=180 μL, 2) test compounds=10 μL, 3) 2′3′-cGAMP or 2′3′-cGAM(PS)2 (Rp/Sp) or vehicle control=10 μL.
After incubation for 24 hours at 37° C., 5% CO2, the supernatants were harvested at 200×g for 10 minutes. Cell culture supernatants were then transferred to a clean plate and stored at −80° C. until ready to analyze for IFN-β levels. The IFN-β levels in cell culture supernatants were determined by ELISA kits (PBL Assay Science, catalog #41410) according to the manufacturer's instructions.
The % increase measured for IFN-β in cells treated by the test compounds 12, 48, 89, 103 and 121 relative to that of untreated cells were tested (as shown in FIGS. 1A-1E).

Structure (SMILES)	IC50 [1] [nM]	IC50 [2] [nM]	% increase measured for IFN-β relative to that of untreated cells [3]
COc1ccc2c(ncc3nc(C)n(Cc4ccc(S(N)(=O)=O)cc4)c32)n1 [Compound 48, 4-((7-methoxy-2-methyl-1H-imidazo[4,5-c][1,8]naphthyridin-1-yl)methyl)benzenesulfonamide]	0.44	0.29	potently increased the IFN-β levels at very low concentrations
COc1ccc2c(n1)nc(C)c1nc(C)n(Cc3ccc(S(N)(=O)=O)cn3)c12 [Compound 89, 6-((7-methoxy-2,4-dimethyl-1H-imidazo[4,5-c][1,8]naphthyridin-1-yl)methyl)pyridine-3-sulfonamide]	2.1	0.52	potently increased the IFN-β levels at very low concentrations
COc1cc2ncc3ncn(Cc4ccc(S(N)(=O)=O)cn4)c3c2cc1OC [Compound 12, 6-((7,8-dimethoxy-1H-imidazo[4,5-c]quinolin-1-yl)methyl)pyridine-3-sulfonamide]	3.9	1.2	potently increased the IFN-β levels at very low concentrations
